Where a SMILES comes first, the peptide text is derived from it. [ ]: non-standard residue; d: D form. The star is where a group is joined. dBta = N[C@H](Cc1csc2ccccc12)C(=O)O; d3Pal = N[C@H](Cc1cccnc1)C(=O)O; d2Thi = N[C@H](Cc1cccs1)C(=O)O; NH(CH2)3Ph = c1ccc(CCCN*)cc1; dNle = CCCC[C@@H](N)C(=O)O
Molecular target: MC1R (Homo sapiens, UniProt Q01726)
Assay: Competitive binding with 125I-NDP-MSH, HEK293 membrane preparations, MC1R;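 further: Read-out: receptor-bound radioligand retained by filtration and counted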
Conditions: for Ki: Ki MC1R, competition with 125I-NDP-MSH
Experimental: Binding analysis was done by Cerep laboratories (Paris, France) with coded samples.
The mixtures were filtered through 96-well GFC filters (Millipore, Billerica, Mass.), washed 3 times with binding buffer without BSA, dried and counted.
A competitive binding assay using a MCR panel including MCR 1, 3, 4, and 5 was performed.

MC1R, sequence (Q01726 whole entry): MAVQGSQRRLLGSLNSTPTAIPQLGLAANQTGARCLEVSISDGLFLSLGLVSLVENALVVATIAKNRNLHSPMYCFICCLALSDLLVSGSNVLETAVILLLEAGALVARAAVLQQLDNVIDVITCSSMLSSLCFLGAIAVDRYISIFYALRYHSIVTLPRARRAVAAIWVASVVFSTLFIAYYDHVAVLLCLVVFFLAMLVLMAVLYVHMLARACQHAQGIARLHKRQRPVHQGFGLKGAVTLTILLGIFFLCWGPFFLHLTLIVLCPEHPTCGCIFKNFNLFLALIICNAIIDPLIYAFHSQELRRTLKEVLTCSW

Ki | improvement of binding to MC1R by stearyl addition to the core tetrapeptide (relative to the unmodified tetrapeptide) | affinity for MC1R compared with parent peptide (in words) | SMILES
150 nM | – | – | CC(C)[C@@H](N)C(=O)N1CCC[C@@H]1C(=O)N[C@H](CCCCN)C(=O)NCC(=O)N[C@H](Cc1c[nH]c2ccccc12)C(=O)N[C@H](CCCNC(=N)N)C(=O)N[C@H](Cc1ccccc1)C(=O)N[C@H](Cc1c[nH]cn1)C(=O)O [847int, vpkGwrfh] (H-[dV][dP][dK]G[dW][dR][dF][dH]-OH)
128 nM | – | – | CSCC[C@@H](NC(=O)[C@@H](CCC(=O)O)NC(=O)[C@@H](Cc1c[nH]cn1)NC(=O)[C@@H](Cc1ccccc1)NC(=O)[C@@H](CCCNC(=N)N)NC(=O)[C@@H](Cc1ccccc1)NC(=O)CNC(=O)[C@@H](CCCCN)NC(=O)[C@H]1CCCN1C(=O)[C@H](NC(C)=O)C(C)C)C(=O)N[C@H](CO)C(=O)N[C@H](Cc1ccc(O)cc1)C(=O)N[C@H](CO)C(N)=O [862-b, vpkGfrfhemsys] (Ac-[dV][dP][dK]G[dF][dR][dF][dH][dE][dM][dS][dY][dS]-NH2)
2.5 nM | – | – | CSCC[C@@H](NC(=O)[C@@H](C)NC(=O)[C@@H](Cc1c[nH]cn1)NC(=O)[C@@H](Cc1ccccc1)NC(=O)[C@@H](CCCNC(=N)N)NC(=O)[C@@H](Cc1c[nH]c2ccccc12)NC(=O)CNC(=O)[C@@H](CCCCN)NC(=O)[C@H]1CCCN1C(=O)[C@H](NC(C)=O)C(C)C)C(=O)N[C@H](CO)C(=O)N[C@H](Cc1ccc(O)cc1)C(=O)N[C@H](CO)C(N)=O [compound 808, vpkGwrfhamsys] (Ac-[dV][dP][dK]G[dW][dR][dF][dH][dA][dM][dS][dY][dS]-NH2)
1.3 nM | 80 fold | – | CCCCCCCCCCCCCCCCCC(=O)N[C@@H](Cc1c[nH]cn1)C(=O)N[C@H](Cc1ccccc1)C(=O)N[C@@H](CCCNC(=N)N)C(=O)N[C@@H](Cc1c[nH]c2ccccc12)C(N)=O [compound 820, (Stearyl) HfRW]
104 ± 72 nM | – | no increase in the affinity | CC(C)[C@@H](N)C(=O)N1CCC[C@@H]1C(=O)N[C@H](CCCCN)C(=O)NCC(=O)N[C@H](Cc1c[nH]c2ccccc12)C(=O)N[C@H](CCCNC(=N)N)C(=O)N[C@H](Cc1ccccc1)C(=O)N[C@H](Cc1c[nH]cn1)C(=O)NCCCc1ccccc1 [compound 847, vpkGwrfh] (H-[dV][dP][dK]G[dW][dR][dF][dH]-{NH(CH2)3Ph})
3 nM | – | – | CSCC[C@@H](NC(=O)[C@@H](CCC(=O)O)NC(=O)[C@@H](Cc1c[nH]cn1)NC(=O)[C@@H](Cc1ccccc1)NC(=O)[C@@H](CCCNC(=N)N)NC(=O)[C@@H](Cc1c[nH]c2ccccc12)NC(=O)CNC(=O)[C@@H](CCCN)NC(=O)[C@H]1CCCN1C(=O)[C@H](NC(C)=O)C(C)C)C(=O)N[C@H](CO)C(=O)N[C@H](Cc1ccc(O)cc1)C(=O)N[C@H](CO)C(N)=O [compound 857, vp(D-Ornithine)Gwrfhemsys]
18 nM | – | – | CCCC[C@@H](NC(=O)[C@H]1CCCN1C(=O)[C@H](NC(C)=O)C(C)C)C(=O)NCC(=O)N[C@H](Cc1c[nH]c2ccccc12)C(=O)N[C@H](CCCNC(=N)N)C(=O)N[C@H](Cc1ccccc1)C(=O)N[C@H](Cc1c[nH]cn1)C(=O)N[C@H](CCC(=O)O)C(=O)N[C@H](CCSC)C(=O)N[C@H](CO)C(=O)N[C@H](Cc1ccc(O)cc1)C(=O)N[C@H](CO)C(N)=O [compound 858, vp(D-Norleucine)Gwrfhemsys] (Ac-[dV][dP][dNle]G[dW][dR][dF][dH][dE][dM][dS][dY][dS]-NH2)
206 nM | – | – | CSCC[C@@H](NC(=O)[C@@H](CCC(=O)O)NC(=O)[C@@H](Cc1c[nH]cn1)NC(=O)[C@@H](Cc1ccccc1)NC(=O)[C@@H](CCCNC(=N)N)NC(=O)[C@@H](Cc1csc2ccccc12)NC(=O)CNC(=O)[C@@H](CCCCN)NC(=O)[C@H]1CCCN1C(=O)[C@H](NC(C)=O)C(C)C)C(=O)N[C@H](CO)C(=O)N[C@H](Cc1ccc(O)cc1)C(=O)N[C@H](CO)C(N)=O [compound 859, vpkG(3-benzothienyl-D-Alanine)rfhemsys] (Ac-[dV][dP][dK]G[dBta][dR][dF][dH][dE][dM][dS][dY][dS]-NH2)
96 nM | – | – | CSCC[C@@H](NC(=O)[C@@H](CCC(=O)O)NC(=O)[C@@H](Cc1c[nH]cn1)NC(=O)[C@@H](Cc1ccccc1)NC(=O)[C@@H](CCCNC(=N)N)NC(=O)[C@@H](Cc1c[nH]c2ccc(O)cc12)NC(=O)CNC(=O)[C@@H](CCCCN)NC(=O)[C@H]1CCCN1C(=O)[C@H](NC(C)=O)C(C)C)C(=O)N[C@H](CO)C(=O)N[C@H](Cc1ccc(O)cc1)C(=O)N[C@H](CO)C(N)=O [compound 860, vpkG(5-hydroxy-D-Trp)rfhemsys]
75 nM | – | – | COc1ccc2[nH]cc(C[C@@H](NC(=O)CNC(=O)[C@@H](CCCCN)NC(=O)[C@H]3CCCN3C(=O)[C@H](NC(C)=O)C(C)C)C(=O)N[C@H](CCCNC(=N)N)C(=O)N[C@H](Cc3ccccc3)C(=O)N[C@H](Cc3c[nH]cn3)C(=O)N[C@H](CCC(=O)O)C(=O)N[C@H](CCSC)C(=O)N[C@H](CO)C(=O)N[C@H](Cc3ccc(O)cc3)C(=O)N[C@H](CO)C(N)=O)c2c1 [compound 861, vpkG(5-methoxy-D-Trp)rfhemsys]
2300 nM | – | – | CSCC[C@@H](NC(=O)[C@@H](CCC(=O)O)NC(=O)[C@@H](Cc1c[nH]cn1)NC(=O)[C@@H](Cc1ccccc1)NC(=O)[C@@H](Cc1c[nH]cn1)NC(=O)[C@@H](Cc1c[nH]c2ccccc12)NC(=O)CNC(=O)[C@@H](CCCCN)NC(=O)[C@H]1CCCN1C(=O)[C@H](NC(C)=O)C(C)C)C(=O)N[C@H](CO)C(=O)N[C@H](Cc1ccc(O)cc1)C(=O)N[C@H](CO)C(N)=O [compound 865, vpkGwhfhemsys] (Ac-[dV][dP][dK]G[dW][dH][dF][dH][dE][dM][dS][dY][dS]-NH2)
480 nM | – | – | CSCC[C@@H](NC(=O)[C@@H](CCC(=O)O)NC(=O)[C@@H](Cc1c[nH]cn1)NC(=O)[C@@H](Cc1cccnc1)NC(=O)[C@@H](CCCNC(=N)N)NC(=O)[C@@H](Cc1c[nH]c2ccccc12)NC(=O)CNC(=O)[C@@H](CCCCN)NC(=O)[C@H]1CCCN1C(=O)[C@H](NC(C)=O)C(C)C)C(=O)N[C@H](CO)C(=O)N[C@H](Cc1ccc(O)cc1)C(=O)N[C@H](CO)C(N)=O [compound 867, vpkGwr(3-pyridyl-D-Alanine)hemsys] (Ac-[dV][dP][dK]G[dW][dR][d3Pal][dH][dE][dM][dS][dY][dS]-NH2)
5.4 nM | – | – | CSCC[C@@H](NC(=O)[C@@H](CCC(=O)O)NC(=O)[C@@H](Cc1c[nH]cn1)NC(=O)[C@@H](Cc1cccs1)NC(=O)[C@@H](CCCNC(=N)N)NC(=O)[C@@H](Cc1c[nH]c2ccccc12)NC(=O)CNC(=O)[C@@H](CCCCN)NC(=O)[C@H]1CCCN1C(=O)[C@H](NC(C)=O)C(C)C)C(=O)N[C@H](CO)C(=O)N[C@H](Cc1ccc(O)cc1)C(=O)N[C@H](CO)C(N)=O [compound 868, vpkGwr(2-thienyl-D-Alanine)hemsys] (Ac-[dV][dP][dK]G[dW][dR][d2Thi][dH][dE][dM][dS][dY][dS]-NH2)
324 nM | – | – | CSCC[C@@H](NC(=O)[C@@H](CCC(=O)O)NC(=O)[C@@H](Cc1c[nH]cn1)NC(=O)[C@@H](Cc1ccc([N+](=O)[O-])cc1)NC(=O)[C@@H](CCCNC(=N)N)NC(=O)[C@@H](Cc1c[nH]c2ccccc12)NC(=O)CNC(=O)[C@@H](CCCCN)NC(=O)[C@H]1CCCN1C(=O)[C@H](NC(C)=O)C(C)C)C(=O)N[C@H](CO)C(=O)N[C@H](Cc1ccc(O)cc1)C(=O)N[C@H](CO)C(N)=O [compound 871, vpkGwr(4-Nitro-D-Phe)hemsys]

From patent US10385108B2, “Peptide analogs of alpha-melanocyte stimulating hormone” (Genzyme Corporation, priority 2008, dated 2019)
